From paper PMC2858402 (Chemical biology & drug design, 2009) come the findings set out here.

The target in test [1] is Full-length DnaK (FL, flDnaK) (Escherichia coli, UniProt P0A6Y8). As to the kind of experiment: isothermal titration calorimetry. Type of test: binding.
The target in test [2] is β-domain of DnaK (SBD), residues 393–507 (Escherichia coli, UniProt P0A6Y8). As to the kind of experiment: isothermal titration calorimetry. Type of test: binding.
Chain of β-domain of DnaK (SBD), residues 393–507 (P0A6Y8 393-507): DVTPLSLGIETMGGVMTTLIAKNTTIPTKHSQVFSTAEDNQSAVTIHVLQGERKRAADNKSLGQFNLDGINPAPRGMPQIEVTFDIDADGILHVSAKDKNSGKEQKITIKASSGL

Chain of Full-length DnaK (FL, flDnaK) (P0A6Y8 2-638): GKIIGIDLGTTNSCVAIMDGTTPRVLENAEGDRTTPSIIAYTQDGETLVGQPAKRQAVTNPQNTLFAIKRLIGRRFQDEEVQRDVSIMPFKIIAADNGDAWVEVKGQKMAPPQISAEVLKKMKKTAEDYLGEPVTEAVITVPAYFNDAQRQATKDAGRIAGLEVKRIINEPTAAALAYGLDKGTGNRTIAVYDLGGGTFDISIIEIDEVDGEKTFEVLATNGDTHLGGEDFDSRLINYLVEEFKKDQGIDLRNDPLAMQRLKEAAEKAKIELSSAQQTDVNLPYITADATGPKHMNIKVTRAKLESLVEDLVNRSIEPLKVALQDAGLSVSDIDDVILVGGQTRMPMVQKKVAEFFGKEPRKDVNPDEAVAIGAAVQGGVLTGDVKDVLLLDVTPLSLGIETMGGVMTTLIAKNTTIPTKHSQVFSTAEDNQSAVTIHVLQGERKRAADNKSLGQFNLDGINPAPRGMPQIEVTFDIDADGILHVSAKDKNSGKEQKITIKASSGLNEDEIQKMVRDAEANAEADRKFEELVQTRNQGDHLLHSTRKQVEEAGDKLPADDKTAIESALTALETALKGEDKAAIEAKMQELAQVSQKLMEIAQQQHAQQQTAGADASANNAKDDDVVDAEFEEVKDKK

With `O=C(c1cccs1)N1CCN(CCO)CC1` [F10, (4-(2-hydroxyethyl)piperazin-1-yl)(thiophen-2-yl)methanone], the Kd in test [1] is 16700 nM.

Molecule `O=C(Nc1ncc2ccccc2n1)c1cccs1` [D9, N-(quinazolin-2-yl)thiophene-2-carboxamide] gave a Kd in test [2] of 1500 nM.

Regarding `O=C(Nc1ccc2[nH]ccc2c1)c1cccs1` [D7, N-(1H-indol-5-yl)thiophene-2-carboxamide], the dissociation constant Kd in test [1] came out at 12700 nM; in test [2], 4900 nM.

Turning to `O=C(NCc1ccc(Cl)c(Cl)c1)c1cccs1` [F6, N-(3,4-dichlorobenzyl)thiophene-2-carboxamide], the Kd in test [1] came to 7300 ± 6400 nM.

As for `O=C(NCc1c(Cl)cccc1Cl)c1cccs1` [F7, N-(2,6-dichlorobenzyl)thiophene-2-carboxamide], in test [1], the Kd worked out at 1500 nM.

In the case of `O=C(NCc1cccc2ccccc12)c1cccs1` [D5, N-(naphthalen-1-ylmethyl)thiophene-2-carboxamide], the equilibrium dissociation constant (Kd) is 1700 nM in test [1] and 1000 nM in test [2].

With `O=C(NCc1cc(Cl)cc(Cl)c1)c1cccs1` [F9, N-(3,5-dichlorobenzyl)thiophene-2-carboxamide], the dissociation constant Kd in test [1] was 2800 nM.

`O=C(NCc1ccccc1O)c1cccs1` [F8, N-(2-hydroxybenzyl)thiophene-2-carboxamide] yielded a Kd in test [1] of 2300 nM.

With `Nc1ncnc2c1ncn2[C@@H]1O[C@H](COP(=O)(O)OP(=O)(O)OP(=O)(O)O)[C@@H](O)[C@H]1O` [ATP], the Kd in test [1] amounted to 10 nM.

For the molecule `O=C(NCc1cccc2ccsc12)c1cccs1` [D10, N-(benzo[b]thiophen-7-ylmethyl)thiophene-2-carboxamide], the Kd in test [1] worked out at 200 nM.
